PMC6212833 (mBio, 2018)
Like-named read-outs stand apart in the source and are kept apart here.

How the values were obtained:
[1] = tested on: B. mandrillaris trophozoites; test: microbe, parasite or virus in culture; assay type: cell-based, Balamuthia mandrillaris; settings: Balamuthia mandrillaris, 72 h
[2] = tested on: B. mandrillaris trophozoites; test: Secondary screening dose response, B. mandrillaris trophozoites; assay type: cell-based, Balamuthia mandrillaris; settings: Balamuthia mandrillaris, 72 h, read-out: B. mandrillaris IC50
Experimental: (§2) Secondary screening of hit compounds consisted of dose-response experiments to measure the toxicity of each compound to B. mandrillaris trophozoites, HFF-1 human fibroblast cells, and H4 human neuroglioma cells. Four 384-well plates were prepared prior to addition of drug as follows: one opaque plate (Corning) seeded with 3,000 HFF-1 cells per well in 60 µl complete media, one opaque plate seeded with 2,000 H4 cells per well in 60 µl complete media, one opaque plate containing 30 µl axenic media, and one clear plate (Corning) containing 30 µl axenic media. Opaque plates were used to measure the viability of trophozoites in the CTG assay, and clear plates were used for microscopic examination of cyst formation. HFF-1 and H4 plates were seeded 24 h prior to drug addition. The selected primary screen hits were added from 10 mM DMSO stocks into wells of all four test plates to reach final concentrations ranging from 0.06 µM to 30 µM (10 concentrations, 2-fold serial dilution). Negative-control wells received concentrations of DMSO corresponding to the amount of DMSO in each tested drug well (reaching a maximum of 0.3% DMSO). B. mandrillaris trophozoites were resuspended in axenic media and added to the plates containing drug dilutions in axenic media at a density of 3,000 amoebae per well in a final volume of 60 µl media. All plates were incubated for 72 h. Throughout the incubation period, the clear-bottom B. mandrillaris plate was monitored for large-scale changes to population encystment in response to drug treatment. After the 72-h incubation, 30 µl of CTG reagent was added to all wells of the opaque assay plates and luminescence was measured with a Promega GloMax-Multi+ plate reader at 2, 4, and 8 h after CTG addition.

[3] = tested on: HFF-1 human fibroblast cells; test: Secondary screening dose response, toxicity to HFF-1 cells; assay type: cell-based; settings: Homo sapiens, HFF-1; 72 h; approximated from dose-response curves; read-out: HFF1 IC50
Experimental: as §2

[4] = tested on: H4 human neuroglioma cells; test: Secondary screening dose response, toxicity to H4 cells; assay type: cell-based; settings: Homo sapiens; 72 h; approximated from dose-response curves
[5] = tested on: B. mandrillaris trophozoites; test: Nitroxoline structure-activity relationship dose response (CellTiter Glo); assay type: cell-based, Balamuthia mandrillaris; settings: Balamuthia mandrillaris, 72 h, 8-point dose response in triplicate; read-out: IC50
[6] = tested on: B. mandrillaris trophozoites; test: Side-by-side dose response, trophozoite viability; assay type: cell-based, Balamuthia mandrillaris; settings: 72 h
Experimental: (§1) B. mandrillaris trophozoites were seeded at 4,000 amoebae per well into opaque and clear-bottom 96-well plates (Corning). Homogenous populations of B. mandrillaris cysts generated by galactose induction were seeded at 4,000 amoebae per well into opaque 96-well plates. HFF-1 (fibroblast), H4 (glial), U87 (glial), HEK-293T (kidney), and Hep-G2 (liver) cells were seeded at 3,000 cells per well in opaque 96-well plates 24 h prior to addition of drug. Stocks of nitroxoline (Selleck Chemicals) were dissolved in 100% DMSO at 10 mM. Stocks of azithromycin (Selleck Chemicals), pentamidine isethionate (Selleck Chemicals), and miltefosine (Selleck Chemicals) were dissolved in water at 10 mM. Drug stocks were serially diluted in water to generate 12-point dilution series, which were then used to treat assay wells containing B. mandrillaris or human cells at final concentrations ranging from 0.39 µM to 400 µM in 100-µl total well volumes. Control wells were treated with vehicle (DMSO or water) at concentrations corresponding to the final vehicle concentrations in each drug dilution series. After incubation for 72 h, 50 µl of CTG was added to all assay wells. Luminescence was measured with a Promega GloMax-Multi+ plate reader 2, 4, and […] after CTG addition. All dose-response experiments were performed with at least three independent biological replicates. IC50 values were determined as previously described. To quantify encystment under treated and untreated conditions, amoebae in individual assay wells were resuspended thoroughly and the number of cysts and number of trophozoites in 10-µl samples were counted by the use of a hemocytometer (SKC, Inc.). Cysts and trophozoites are morphologically distinct, making them simple to distinguish with bright-field microscopy (example images are shown in Fig. S1 in the supplemental material). Encystment assays were performed with three independent biological replicates.

[7] = tested on: B. mandrillaris cysts; test: Dose response, viability of preformed galactose-induced cysts; assay type: cell-based, Balamuthia mandrillaris; settings: 72 h
Experimental: Following the findings of a previous study, encystment of B. mandrillaris was induced by galactose exposure ([74]). B. mandrillaris trophozoites were grown to log phase in axenic media, and galactose was added to reach a final concentration of 12% (vol/vol). Amoebae were cultured in the induction medium until trophozoites were no longer observed (approximately 10 days). Galactose-induced cysts transition back to trophozoites after approximately 3 days of incubation in galactose-free axenic medium. Therefore, all assays with cysts were completed in the induction medium. […] All incubation steps for B. mandrillaris growth were carried out at 37°C with 5% CO2.
as §1

[8] = Cytotoxicity dose response, U87; assay type: cell-based; settings: human, U87 (glial) cells, unit not given in Table S3, drug concentrations in µM, read-out: CC50 U87 cell line
Experimental: as §1

[9] = Cytotoxicity dose response, H4; assay type: cell-based; settings: human, H4 (glial) cells, unit not given in Table S3, drug concentrations in µM, read-out: CC50 H4 cell line
Experimental: as §1

[10] = Cytotoxicity dose response, HEK-293T; assay type: cell-based; settings: human, HEK-293T (kidney) cells, unit not given in Table S3, drug concentrations in µM, read-out: CC50 HEK-293T cell line
Experimental: as §1

[11] = Cytotoxicity dose response, HFF-1; assay type: cell-based; settings: human, HFF-1 (fibroblast) cells, unit not given in Table S3, drug concentrations in µM, read-out: CC50 HFF-1 cell line
Experimental: as §1

[12] = Cytotoxicity dose response, Hep-G2; assay type: cell-based; settings: human, Hep-G2 (liver) cells, unit not given in Table S3, drug concentrations in µM, read-out: CC50 Hep-G2 cell line
Experimental: as §1

[13] = Cytotoxicity, mean of all cell lines; assay type: cell-based; settings: human, U87, H4, HEK-293T, HFF-1 and Hep-G2 cell lines (mean of all), unit inferred
Experimental: as §1

[14] = tested on: B. mandrillaris; test: Encystment assay, counts of cysts and trophozoites; assay type: cell-based, Balamuthia mandrillaris; settings: 72 h of treatment with different drug concentrations
Experimental: as §1

[15] = tested on: B. mandrillaris; test: Recrudescence assay on HFF-1 monolayer after drug treatment; assay type: cell-based, Balamuthia mandrillaris
[16] = tested on: B. mandrillaris trophozoites; test: Primary human brain tissue explant infection model; assay type: cell-based, Balamuthia mandrillaris; settings: 35 μM simultaneously with inoculation, removed at 20 h, evaluated at 96 h
[17] = tested on: B. mandrillaris trophozoites; test: Drug combination dose matrices, trophozoite viability (EOHSA model); assay type: cell-based, Balamuthia mandrillaris; settings: 72 h
Experimental: Experiments measuring the effect of drug combinations were carried out similarly to the dose-response experiments described above. B. mandrillaris trophozoites were seeded into opaque 96-well plates (Corning) at a density of 4,000 amoebae per well and then treated with concentrations of nitroxoline that differed across the rows of each plate and with concentrations of either miltefosine or pentamidine isethionate that differed down the columns to generate 7-by-7 dose combination matrices. Final drug concentrations ranged from 0.5 to 10 µM, from 10 to 100 µM, and from 1 to 100 µM for nitroxoline, miltefosine, and pentamidine isethionate, respectively. After incubation with drug or vehicle was performed for 72 h, CTG was added to all assay wells and luminescence was measured with a Promega Glomax-Multi+ plate reader. The percent effect of each drug combination was calculated as the reduction in luminescence value relative to vehicle-only controls. The additive effect of drug combinations was assessed using the excess over highest single agent (EOHSA) model ([76], [77]). […] Drug combination experiments were performed with three independent replicates.

[18] = parameters: method as in PMID 3309832, PMID 118941, PMID 7251741; settings: adults, 600 to 800 mg/day, cited from earlier work
[19] = tested on: gliomas; parameters: method as in PMID 25074541; settings: systemically delivered; cited from earlier work

O=[N+]([O-])c1ccc(O)c2ncccc12 [Nitroxoline, 8-hydroxy-5-nitroquinoline]
inhibition at 20 µM [1]: 100%
IC50 [2]: 11 µM
IC50 [3]: > 30 µM
IC50 [4]: 7 µM
IC50 [5]: 4.77 µM
IC99, B. mandrillaris trophozoite viability [6]: 7.54 µM
IC50 ([6]; Balamuthia mandrillaris, read-out: IC50, B. mandrillaris trophozoites, 72 h): 2.8 µM
IC50 ([6]; read-out: IC50, B. mandrillaris trophozoites): 2.84 µM
IC50 ([7]; Balamuthia mandrillaris, read-out: IC50, B. mandrillaris cysts, preformed cysts, 12% galactose induction medium, 72 h): 15.5 µM
IC50 ([7]; preformed cysts, 12% galactose induction medium, read-out: IC50, B. mandrillaris cysts): 15.5 µM
CC50 at 72 h [8]: 24.9 µM
CC50 at 72 h [9]: 5.6 µM
CC50 at 72 h [10]: 4.9 µM
CC50 at 72 h [11]: 51.8 µM
CC50 at 72 h [12]: 9.3 µM
CC50 at 72 h [13]: 19.3 µM
encystment response [14]: increase in both the total number and the proportion of cysts
Mean no. of days for host cell clearance ± SE ([15]; 3.5 µM for 72 h, then drug-free coculture with HFF-1, 28-day experiment): 15.33 ± 0.67 days
Mean no. of days for host cell clearance ± SE ([15]; 7 µM for 72 h, then drug-free coculture with HFF-1, 28-day experiment): 19 ± 0.58 days
Mean no. of days for host cell clearance ± SE ([15]; 14 µM for 72 h, then drug-free coculture with HFF-1, 28-day experiment): 22 ± 2.08 days
Mean no. of days for host cell clearance ± SE ([15]; 28 µM for 72 h, then drug-free coculture with HFF-1, NRT = no recovery of trophozoites or host cell destruction observed through 28 days): NRT^a
concentration that completely eliminated B. mandrillaris populations ([15]; 72 h treatment, no recovery after 28 days of coculture): 28 µM
protection of human brain tissue explants [16]: do not show signs of tissue damage or loss of cell density
Percent inhibition of B. mandrillaris viability ([17]; Fig S2A, nitroxoline 0.5 µM alone): -4%
Percent inhibition of B. mandrillaris viability ([17]; Fig S2A, nitroxoline 2 µM alone): 28%
Percent inhibition of B. mandrillaris viability ([17]; Fig S2A, nitroxoline 2.5 µM alone): 31%
Percent inhibition of B. mandrillaris viability ([17]; Fig S2A, nitroxoline 3 µM alone): 34%
Percent inhibition of B. mandrillaris viability ([17]; Fig S2A, nitroxoline 5 µM alone): 92%
Percent inhibition of B. mandrillaris viability ([17]; Fig S2A, nitroxoline 10 µM alone): 93%
Percent inhibition of B. mandrillaris viability ([17]; Fig S2B, nitroxoline 0.5 µM alone): 0%
Percent inhibition of B. mandrillaris viability ([17]; Fig S2B, nitroxoline 2 µM alone): 28%
Percent inhibition of B. mandrillaris viability ([17]; Fig S2B, nitroxoline 2.5 µM alone): 33%
Percent inhibition of B. mandrillaris viability ([17]; Fig S2B, nitroxoline 3 µM alone): 32%
Percent inhibition of B. mandrillaris viability ([17]; Fig S2B, nitroxoline 5 µM alone): 91%
Percent inhibition of B. mandrillaris viability ([17]; Fig S2B, nitroxoline 10 µM alone): 92%
maximal plasma concentrations (Cmax) [18]: ~5600 ng/mL
Cmax ([18]; read-out: maximal plasma concentrations (Cmax)): ~30 µM
efficacy against gliomas [19]: exhibits efficacy against gliomas in mice
